Assay results taken from patent US20240384250A1, “FIBROBLAST GROWTH FACTOR 23 MODULATING COMPOUNDS” (THE UAB RESEARCH FOUNDATION, priority 2021, published 2024).
“Also recorded” adds a separate entry of the source.

What was measured:
[1] = tested on: BALB/c mice on 0.2% adenine diet; conditions: mouse, in vivo
Description: This diet-induced model of CKD, which develops kidney tubulointerstitial damage and cardiac hypertrophy, was constructed in accordance with previous studies.^74,75 Male and female mice were studied in separate groups on the basis of the gender-specific effect of adenine, with females taking much longer (16-20 weeks) to develop kidney injury.^76 Five-week-old BALB/c mice (The Jackson Laboratory) were put on the control diet for 1 week. After 1 week, male and female mice were each split into 4 groups, receiving control chow and saline injections, control chow and heparin injections, adenine chow and saline injections, or adenine chow and heparin injections. […]
Short-axis heart sections were stained with H&E (IDEXX Laboratories) and used for representative images. Pictures were taken with a Leica Dmi8 fluorescence microscope. The crosssectional area of individual cardiac myocytes in paraffin-embedded short-axis sections was measured. […] Immunofluorescence images were taken with a Leica Dmi8 fluorescence microscope with a 60× oil objective. ImageJ software (National Institutes of Health) was used to quantify the cross-sectional area of 25 cells per field in 4 fields along the mid-chamber free wall on the basis of WGA-positive staining.

[2] = tested on: adult rat ventricular myocytes (ARVMs); test: Calcium transients and cell shortening in adult rat ventricular myocytes; format: cell-based
Description: As done before,^69 adult male Wistar rats (150-200 g) were killed and hearts were quickly removed and cannulated via the ascending aorta on a Langendorff system where they were retrograde perfused and digested by type II collagenase. Hearts were perfused with calcium-free Tyrode's solution supplemented with 0.2 mmol/L of ethyleneglycol-bis-((3-aminoethylether)-N,N, N′,N′-tetraacetic acid for 3 minutes. For the digestion, hearts were perfused with Tyrode's solution containing 0.1 mmol/L of CaCl2), 1 mg/ml of type II collagenase (Worthington), and 1 mg/ml of BSA for 3 to 4 minutes at room temperature. Cells were resuspended in Tyrode's solution containing 1 mmol/L of CaCl2). Tyrode's solution contains 130 mM NaCl, 5.4 mM KCl, 0.4 mM NaH2PO4, 0.5 mM MgCl2, 25 mM N-2-hydroxyethylpiperazine-N-2-ethanesulfonic acid, and 22 mM glucose. Adult rat ventricular myocytes (ARVMs) were loaded with the fluorescent Ca^2+ dye Fluo-3 AM (Thermo Fisher Scientific) for cytosolic Ca^2+ measurements. Loaded ARVMs were acutely perfused during 2 minutes with vehicle, FGF23 (10 ng/ml), or a combination of FGF23 and heparin (0.7 USP/ml). Cytosolic Ca^2+ transients were recorded under 1 Hz of field stimulation using 2 parallel platinum electrodes. Images were obtained with confocal microscopy (Zeiss LSM 510-META microscope), using a 40× objective by scanning the cell with an argon laser every 1.54 ms. Fluo-3 AM was excited at 488 nm, and emissions were collected at >505 nm. Cell contraction was stimulated as the difference in cell length between rest and contraction (during electrical stimulation), expressed as a percentage of shortening of the cell length. Image analysis was performed with self-made routines using IDL (Research Systems) and ImageJ (v1.53) software.

FGF5 binding to FGFR1c = target: T1, FGF5 binding to FGFR1c (Homo sapiens, UniProt P11362); test: Plate-based binding of paracrine FGF to Fc-FGFR1c with heparin and/or sKL; conditions: 0.4 USP heparin
T1 construct: a chimeric protein consisting of the FGFR1 ectodomain and the Fc region of a human IgG; purchased R&D Systems 237-F5/CF; 658FR050
Description: (§1) Proteins were coated on 96-well plates (MaxiSorp; 439454, Thermo Fisher Scientific), and proteins were added to wells in 100 μl of enzyme-linked immunosorbent assay (ELISA) coating buffer (E107, Bethyl Laboratories) with a lid placed overtop and incubated at 4° C. overnight. Plates were washed 5× with 350 μl of assay buffer (50 mM Tris [pH 7.4], 200 mM NaCl, 0.01% Tween 20) on a 50 TS microplate washer (BioTek). Plates were blocked for 1 hour in 200 μl of assay buffer with 0.5% BSA. Plates were washed as before, and proteins were incubated on plates in 100 μl of assay buffer with 0.5% BSA. Proteins or heparin was incubated in orders described in the respective figure legends. Assays using FLAG-tag-based detection were incubated with anti-FLAG coupled to HRP at 1:20,000, and assays using Fc detection were incubated with anti-human Fc coupled to HRP at 1:10,000. Plates were washed as above, and 100 μl of 3,3′,5,5′-tetramethylbenzidine (TMB) substrate (E102, Bethyl Laboratories) was added for 15 to 20 minutes until positive wells developed a dark blue color. Reactions were stopped with ELISA stop solution (E115, Bethyl Laboratories) and analyzed using the Synergy HI plate reader (BioTek) at 450 nm wavelength. […] As a control to remove background absorbance values, wells were coated with an equal amount of BSA to match the amount of protein coated in experimental wells and treated the same as experimental wells. To study the effects of sKL on the binding between paracrine FGFs and FGFRs, plates were run as above except coated with paracrine FGFs. Fc-FGFR1 was preincubated with sKL or vehicle for 60 minutes, and then the combination was added to wells and the assay was run as before.

FGF7 binding to FGFR1c = target: T2, FGF7 binding to FGFR1c (Homo sapiens, UniProt P11362); test: as above; conditions: 0.4 USP heparin
T2 construct: a chimeric protein consisting of the FGFR1 ectodomain and the Fc region of a human IgG; purchased R&D Systems 251-KG/CF; 658FR050
Description: as §1

FGF2 binding to FGFR1c = target: T3, FGF2 binding to FGFR1c (Homo sapiens, UniProt P11362); test: as above; conditions: 0.4 USP heparin before incubation with FGFR1c
T3 construct: a chimeric protein consisting of the FGFR1 ectodomain and the Fc region of a human IgG; purchased R&D Systems 233-FB/CF; 658FR050
T3 sequence (P11362 22-376 limits assumed): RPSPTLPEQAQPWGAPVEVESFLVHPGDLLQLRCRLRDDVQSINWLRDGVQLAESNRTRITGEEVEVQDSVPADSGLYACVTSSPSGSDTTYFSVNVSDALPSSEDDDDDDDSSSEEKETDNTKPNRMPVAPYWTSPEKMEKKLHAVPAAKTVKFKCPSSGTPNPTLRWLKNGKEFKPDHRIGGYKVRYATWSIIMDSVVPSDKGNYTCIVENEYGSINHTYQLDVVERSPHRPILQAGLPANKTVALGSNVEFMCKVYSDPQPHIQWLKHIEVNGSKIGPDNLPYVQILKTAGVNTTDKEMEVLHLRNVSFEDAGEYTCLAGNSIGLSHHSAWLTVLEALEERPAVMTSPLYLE
Description: as §1

## heparin [reference compound]
[1]
  effect on the heart: no effect on the heart
  ratio of heart weight to body weight: not significantly altered
[2]; FGF23 10 ng/ml with heparin 0.7 USP/ml
  FGF23 effect on [Ca2+]i transients in the presence of heparin: became statistically significant; also recorded: significantly increased
[2]; FGF23 with heparin
  FGF23 effect on cell shortening with addition of heparin: significantly increased the effect of FGF23
[2]; heparin 0.7 USP/ml
  [Ca2+]i transients, heparin by itself: no significant effects
[2]; heparin alone
  cell shortening, heparin by itself: no significant effects
FGF5 binding to FGFR1c
  FGF5 binding to FGFR1c with heparin: increased the binding of FGF2 and FGFS to FGFR1c
FGF7 binding to FGFR1c
  FGF7 binding to FGFR1c with heparin: did not induce binding
FGF2 binding to FGFR1c
  FGF2 binding to FGFR1c with heparin: increased the binding of FGF2
FGF2 binding to FGFR1c; listed as heparin
  FGF2 binding to FGFR1c with heparin: significantly increased; also recorded: increased FGF2 binding
